# Laboratory results published in US9593149B2, “Amylin and calcitonin receptor agonist” (Novo Nordisk A/S, priority 2014, dated 2017).
# Numbered stars: 1 amine (or outer) side, 2 acyl side, 3 side chain; on linkers, the order of the positions; unused ones are H or OH. Peptide text beside a SMILES is read from it. * marks the point of attachment. C20 diacid = O=C(O)CCCCCCCCCCCCCCCCCCC(=O)*; γGlu = O=C(O)[C@H](CCC(=O)[*:2])N[*:1]
# Test: Assay (IV) determination of solubility
# Assay type: physicochemical
# Procedure: Assay (IV)—Determination of Solubility
# The mimylin peptide was dissolved in water at ˜500 nmol/ml and mixed 1:1 with a series of buffers (100 mM glycylglycine pH 3.0, 100 mM glycylglycine pH 4.0, 100 mM glycylglycine pH 5.0, 100 mM bistrispropane pH 6.0, 100 mM bistrispropane pH 6.5, 100 mM bistrispropane pH 7.0, 100 mM bistrispropane pH 7.5, 100 mM bistrispropane pH 8.0).
SMILES,Solubility (pH 3.0),Solubility (pH 4.0),solubility at 18 h (pH 5.0),Solubility (pH 6.0),Solubility (pH 6.5),Solubility (pH 7.0),Solubility (pH 7.5),Solubility (pH 8.0),solubility at 18 h (pH 4.0),solubility at 18 h (pH 6.0),solubility at 18 h (pH 6.5),solubility at 18 h (pH 7.0),solubility at 18 h (pH 7.5),solubility at 18 h (pH 8.0),Solubility (pH 5.0)
"CC(C)C[C@H](NC(=O)CNC(=O)[C@H](CO)NC(=O)[C@H](C)NC(=O)CC[C@H](NC(=O)CCCCCCCCCCCCCCCCCCC(=O)O)C(=O)O)C(=O)N[C@@H](CO)C(=O)N[C@H](C(=O)N[C@@H](C)C(=O)N[C@@H](C)C(=O)N[C@@H](CC(C)C)C(=O)NCC(=O)N[C@@H](CCCNC(=N)N)C(=O)N[C@@H](CC(C)C)C(=O)N[C@@H](CO)C(=O)N[C@@H](CCC(N)=O)C(=O)N[C@@H](CCC(=O)O)C(=O)N[C@@H](CC(C)C)C(=O)N[C@@H](Cc1cnc[nH]1)C(=O)N[C@@H](CCC(=O)O)C(=O)N[C@@H](CC(C)C)C(=O)N[C@@H](CCC(N)=O)C(=O)N[C@H](C(=O)N[C@@H](Cc1ccc(O)cc1)C(=O)N1CCC[C@H]1C(=O)N[C@@H](Cc1cnc[nH]1)C(=O)N[C@H](C(=O)N[C@@H](CCC(=O)O)C(=O)N[C@H](C(=O)NCC(=O)N[C@@H](CO)C(=O)NCC(=O)N[C@H](C(=O)N[C@@H](Cc1ccc(O)cc1)C(N)=O)[C@@H](C)O)[C@@H](C)O)[C@@H](C)O)[C@@H](C)O)[C@@H](C)O [compound 117, [N-terminal(C20 diacid-gGlu), des1, 4G, 15Q, 21Q, 23Y, 25H, 30S, 31G, 32T, 33Y]mimylin] ({C20 diacid-γGlu}-ASGLSTAALGRLSQELHELQTYPHTETGSGTY-NH2)",≧200 μM,≧200 μM,38 µM,≧200 μM,≧200 μM,≧200 μM,≧200 μM,≧200 μM,–,–,–,–,–,–,–
"CC(C)C[C@H](NC(=O)CNC(=O)[C@H](CO)NC(=O)[C@H](C)NC(=O)CC[C@H](NC(=O)CCCCCCCCCCCCCCCCCCC(=O)O)C(=O)O)C(=O)N[C@@H](CO)C(=O)N[C@H](C(=O)N[C@@H](C)C(=O)N[C@H](C(=O)N[C@@H](CC(C)C)C(=O)NCC(=O)N[C@@H](CCCNC(=N)N)C(=O)N[C@@H](CC(C)C)C(=O)N[C@@H](CO)C(=O)N[C@@H](CCC(N)=O)C(=O)N[C@@H](CCC(=O)O)C(=O)N[C@@H](CC(C)C)C(=O)N[C@@H](Cc1cnc[nH]1)C(=O)N[C@@H](CCC(=O)O)C(=O)N[C@@H](CC(C)C)C(=O)N[C@@H](CCC(N)=O)C(=O)N[C@H](C(=O)N[C@@H](Cc1ccc(O)cc1)C(=O)N1CCC[C@H]1C(=O)N[C@@H](CCCNC(=N)N)C(=O)N[C@H](C(=O)N[C@@H](CCC(=O)O)C(=O)N[C@H](C(=O)NCC(=O)N[C@@H](CO)C(=O)NCC(=O)N[C@H](C(=O)N[C@@H](Cc1ccc(O)cc1)C(N)=O)[C@@H](C)O)[C@@H](C)O)[C@@H](C)O)[C@@H](C)O)C(C)C)[C@@H](C)O [compound 118, [N-terminal(C20 diacid-gGlu), des1, 4G, 9V, 15Q, 21Q, 23Y, 30S, 31G, 32T, 33Y]mimylin]",≧200 μM,–,8 µM,–,–,–,–,–,2 µM,17 µM,5 µM,26 µM,90 µM,173 µM,–
"CC(C)C[C@H](NC(=O)CNC(=O)[C@H](CO)NC(=O)[C@H](C)NC(=O)CC[C@H](NC(=O)CCCCCCCCCCCCCCCCCCC(=O)O)C(=O)O)C(=O)N[C@@H](CO)C(=O)N[C@H](C(=O)N[C@@H](C)C(=O)N[C@H](C(=O)N[C@@H](CC(C)C)C(=O)NCC(=O)N[C@@H](CCCNC(=N)N)C(=O)N[C@@H](CC(C)C)C(=O)N[C@@H](CO)C(=O)N[C@@H](CCC(N)=O)C(=O)N[C@@H](CCC(=O)O)C(=O)N[C@@H](CC(C)C)C(=O)N[C@@H](Cc1cnc[nH]1)C(=O)N[C@@H](CCC(=O)O)C(=O)N[C@@H](CC(C)C)C(=O)N[C@@H](CCC(N)=O)C(=O)N[C@H](C(=O)N[C@@H](Cc1ccc(O)cc1)C(=O)N1CCC[C@H]1C(=O)N[C@@H](CCCNC(=N)N)C(=O)N[C@H](C(=O)N[C@@H](CCC(=O)O)C(=O)N[C@H](C(=O)NCC(=O)N[C@@H](CO)C(=O)N[C@@H](C)C(=O)N[C@H](C(=O)N[C@@H](Cc1ccc(O)cc1)C(N)=O)[C@@H](C)O)[C@@H](C)O)[C@@H](C)O)[C@@H](C)O)C(C)C)[C@@H](C)O [compound 122, [N-terminal(C20 diacid-gGlu), des1, 4G, 9V, 15Q, 21Q, 23Y, 30S, 31A, 32T, 33Y]mimylin] ({C20 diacid-γGlu}-ASGLSTAVLGRLSQELHELQTYPRTETGSATY-NH2)",≧200 μM,≧200 μM,32 µM,≧200 μM,≧200 μM,≧200 μM,≧200 μM,≧200 μM,–,–,–,–,–,–,–

# The next lines start with the values.
Solubility (pH 3.0),Solubility (pH 4.0),solubility at 18 h (pH 5.0),Solubility (pH 6.0),Solubility (pH 6.5),Solubility (pH 7.0),Solubility (pH 7.5),Solubility (pH 8.0),solubility at 18 h (pH 4.0),solubility at 18 h (pH 6.0),solubility at 18 h (pH 6.5),solubility at 18 h (pH 7.0),solubility at 18 h (pH 7.5),solubility at 18 h (pH 8.0),Solubility (pH 5.0),SMILES
≧200 μM,≧200 μM,2 µM,≧200 μM,≧200 μM,≧200 μM,≧200 μM,≧200 μM,–,–,–,–,–,–,–,"CC(C)C[C@H](NC(=O)CC[C@H](NC(=O)CCCCCCCCCCCCCCCCCCC(=O)O)C(=O)O)C(=O)N[C@@H](CO)C(=O)NCC(=O)N[C@@H](CC(C)C)C(=O)N[C@@H](CO)C(=O)N[C@H](C(=O)N[C@@H](C)C(=O)N[C@H](C(=O)N[C@@H](CC(C)C)C(=O)NCC(=O)N[C@@H](CCCNC(=N)N)C(=O)N[C@@H](CC(C)C)C(=O)N[C@@H](CO)C(=O)N[C@@H](C)C(=O)N[C@@H](CCC(=O)O)C(=O)N[C@@H](CC(C)C)C(=O)N[C@@H](Cc1cnc[nH]1)C(=O)N[C@@H](CCC(=O)O)C(=O)N[C@@H](CC(C)C)C(=O)N[C@@H](CO)C(=O)N[C@H](C(=O)N[C@@H](Cc1ccc(O)cc1)C(=O)N1CCC[C@H]1C(=O)N[C@@H](CCCNC(=N)N)C(=O)N[C@H](C(=O)N[C@@H](CCC(=O)O)C(=O)N[C@H](C(=O)NCC(=O)N[C@@H](CO)C(=O)NCC(=O)N[C@H](C(=O)N[C@@H](Cc1ccc(O)cc1)C(N)=O)[C@@H](C)O)[C@@H](C)O)[C@@H](C)O)[C@@H](C)O)C(C)C)[C@@H](C)O [compound 123, [N-terminal(C20 diacid-gGlu), des1, 2L, 4G, 9V, 21S, 23Y, 30S, 31G, 32T, 33Y]mimylin] ({C20 diacid-γGlu}-LSGLSTAVLGRLSAELHELSTYPRTETGSGTY-NH2)"
≧200 μM,≧200 μM,61 µM,≧200 μM,≧200 μM,≧200 μM,≧200 μM,≧200 μM,–,–,–,–,–,–,–,"CC(C)C[C@H](NC(=O)CNC(=O)[C@H](CO)NC(=O)[C@H](C)NC(=O)CC[C@H](NC(=O)CCCCCCCCCCCCCCCCCCC(=O)O)C(=O)O)C(=O)N[C@@H](CO)C(=O)N[C@H](C(=O)N[C@@H](C)C(=O)N[C@H](C(=O)N[C@@H](CC(C)C)C(=O)NCC(=O)N[C@@H](CCCNC(=N)N)C(=O)N[C@@H](CC(C)C)C(=O)N[C@@H](CO)C(=O)N[C@@H](CCC(N)=O)C(=O)N[C@@H](CCC(=O)O)C(=O)N[C@@H](CC(C)C)C(=O)N[C@@H](Cc1cnc[nH]1)C(=O)N[C@@H](CCC(=O)O)C(=O)N[C@@H](CC(C)C)C(=O)N[C@@H](CCC(N)=O)C(=O)N[C@H](C(=O)N[C@@H](Cc1ccc(O)cc1)C(=O)N1CCC[C@H]1C(=O)N[C@@H](CCCNC(=N)N)C(=O)N[C@H](C(=O)N[C@@H](CCC(=O)O)C(=O)N[C@H](C(=O)NCC(=O)N[C@@H](CO)C(=O)NCC(=O)N[C@H](C(=O)N[C@@H](Cc1ccc(O)cc1)C(N)=O)[C@@H](C)O)[C@@H](C)O)[C@@H](C)O)[C@@H](C)O)[C@@H](C)O)[C@@H](C)O [compound 124, [N-terminal(C20 diacid-gGlu), des1, 4G, 9T, 15Q, 21Q, 23Y, 30S, 31G, 32T, 33Y]mimylin] ({C20 diacid-γGlu}-ASGLSTATLGRLSQELHELQTYPRTETGSGTY-NH2)"
≧200 μM,–,–,≧200 μM,≧200 μM,≧200 μM,≧200 μM,≧200 μM,28 µM,–,–,–,–,–,≧200 μM,"CC(C)C[C@H](NC(=O)CNC(=O)[C@H](CO)NC(=O)[C@H](C)NC(=O)CC[C@H](NC(=O)CCCCCCCCCCCCCCCCCCC(=O)O)C(=O)O)C(=O)N[C@@H](CO)C(=O)N[C@H](C(=O)N[C@@H](C)C(=O)N[C@H](C(=O)N[C@@H](CC(C)C)C(=O)NCC(=O)N[C@@H](CCCNC(=N)N)C(=O)N[C@@H](CC(C)C)C(=O)N[C@@H](CO)C(=O)N[C@@H](CCC(N)=O)C(=O)N[C@@H](CCC(=O)O)C(=O)N[C@@H](CC(C)C)C(=O)N[C@@H](Cc1cnc[nH]1)C(=O)N[C@@H](CCC(=O)O)C(=O)N[C@@H](CC(C)C)C(=O)N[C@@H](CCC(N)=O)C(=O)N[C@H](C(=O)N[C@@H](Cc1ccc(O)cc1)C(=O)N1CCC[C@H]1C(=O)N1CCC[C@H]1C(=O)N[C@H](C(=O)N[C@@H](CCC(=O)O)C(=O)N[C@H](C(=O)NCC(=O)N[C@@H](CO)C(=O)N[C@@H](CCC(N)=O)C(=O)N[C@H](C(=O)N[C@@H](Cc1ccc(O)cc1)C(N)=O)[C@@H](C)O)[C@@H](C)O)[C@@H](C)O)[C@@H](C)O)C(C)C)[C@@H](C)O [compound 125, [N-terminal(C20 diacid-gGlu), des1, 4G, 9V, 15Q, 21Q, 23Y, 25P, 30S, 31Q, 32T, 33Y]mimylin] ({C20 diacid-γGlu}-ASGLSTAVLGRLSQELHELQTYPPTETGSQTY-NH2)"
